Results reported in US9630977B2, “Cephalosporin derivatives and pharmaceutical compositions thereof” (Legochem Biosciences, Inc., priority 2011, dated 2017).
Converted amounts (≈) assume the structure as drawn.

Key:
Assay type in all cases: cell-based
A. baumannii 46 = test: In vitro antibacterial activity test (broth microdilution); conditions: A. baumannii 46
How it was run: (§1)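 Compounds were dissolved in DMSO at 10,240 ug/mL stock, diluted two-fold in DMSO and then twenty-fold in sterile water. Final test concentrations spanned 0.0626 to 128 ug/mL with 2.5% (V/V) DMSO, and MIC90 was read by CLSI broth microdilution.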

A. baumannii 49 = test: as above; conditions: A. baumannii 49
How it was run: as §1

A. baumannii 52 = test: as above; conditions: A. baumannii 52
How it was run: as §1

[1] = test system: A. calcoaceticus ATCC15473; test: as above; conditions: A. calcoaceticus ATCC15473
How it was run: as §1

E. cloacae β19 = test: as above
How it was run: as §1

E. coli AG100 = test: as above; conditions: E. coli AG100
How it was run: as §1

E. coli β4 = test: as above
How it was run: as §1

K. pneumoniae 2011E = test: as above; conditions: K. pneumoniae 2011E
How it was run: as §1

K. pneumoniae β10 = test: as above; conditions: K. pneumoniae β10
How it was run: as §1

K. pneumoniae β11 = test: as above; conditions: K. pneumoniae β11
How it was run: as §1

K. pneumoniae β13 = test: as above; conditions: K. pneumoniae β13
How it was run: as §1

K. pneumoniae β14 = test: as above
How it was run: as §1

K. pneumoniae β9 = test: as above; conditions: K. pneumoniae β9
How it was run: as §1

M. catarrhalis 2524 = test: as above; conditions: M. catarrhalis 2524
How it was run: as §1

P. aeruginosa 1912E = test: as above
How it was run: as §1

P. aeruginosa 37 = test: as above; conditions: P. aeruginosa 37
How it was run: as §1

P. aeruginosa 40 = test: as above; conditions: P. aeruginosa 40
How it was run: as §1

P. aeruginosa 43 = test: as above; conditions: P. aeruginosa 43
How it was run: as §1

P. aeruginosa 6065Y = test: as above
How it was run: as §1

[2] = test system: A. baumannii (6 clinical isolates); test: Antibacterial activity on representative drug-resistance bacteria: number of clinical isolates per MIC value; conditions: A. baumanni (N = 6)
Experimental: (§2) The in vitro antibacterial activity was evaluated by measuring MIC90 (ug/mL) of each of the compounds of Examples 1 to 68, which is defined as the lowest concentration of an antibiotic that will inhibit the visible growth of 90% of microorganisms after incubation as compared with a control group to which the antibiotic is not treated. MIC90 values were measured by the broth microdilution method developed by the Clinical and Laboratory Standards Institute (CLSI) (see CLSI M7-A5, Methods for Dilution Antimicrobial Susceptibility Test for Bacteria that Grow Aerobically-Fifth Edition (2000): CLSI, Villanova, Pa.).
(§3) Test compounds each (the cephalosporin derivative compounds prepared in Examples 1 to 68) were dissolved in DMSO at the concentration of 10,240 ug/mL, were diluted by two fold with DMSO, and then were diluted by twenty fold with sterilized distilled water. The final concentration in the antibacterial activity test was in the range of […] to 128 ug/mL, and the final concentration of DMSO used as an adjuvant was 2.5% (V/V).

[3] = test system: K. pneumoniae (38 clinical isolates); test: as above; conditions: K. pneumomiae (N = 38)
Experimental: as §2, §3

[4] = test system: P. aeruginosa (16 clinical isolates); test: as above; conditions: P. aeruginosa (N = 16)
Experimental: as §2, §3

19 clinical isolates = test: In vitro antibacterial activity test, panel of 19 clinical isolates as a whole; conditions: effect of a siderophore group, Table 1
Experimental: To evaluate antibacterial activity of each of the compounds of Examples 1 to 68, in vitro antibacterial activity test was performed.
as §2
In vitro antibacterial activity was measured with respect to the following 19 clinical isolates: M. catarrhalis; P. aeruginosa (5 strains); K. pneumoniae (6 strains); A. baumannii (3 strains); E. coli (2 strains); A. calcoaceticus; and E. cloacae.
as §3

SMILES: CC(C)(O/N=C(\C(=O)N[C@@H]1C(=O)N2C(C(=O)[O-])=C(/C=C/C[n+]3cnc(N)c(NCCNC(=O)c4cc(=O)c(O)cn4O)c3)CSC12)c1csc(N)n1)C(=O)O (stereo partly shown) [Compound 11]
- MIC90 (A. baumannii 46): 4 µg/mL (≈ 5 µM)
- MIC90 (A. baumannii 49): >128 µg/mL
- MIC90 (A. baumannii 52): >128 µg/mL
- MIC90 [1]: 1 µg/mL (≈ 1.25 µM)
- MIC90 (E. cloacae β19): 64 µg/mL (≈ 80 µM)
- MIC90 (E. coli AG100): 0.125 µg/mL (≈ 0.156 µM)
- MIC90 (E. coli β4): 0.125 µg/mL (≈ 0.156 µM)
- MIC90 (K. pneumoniae 2011E): 0.5 µg/mL (≈ 0.625 µM)
- MIC90 (K. pneumoniae β10): <0.0625 µg/mL
- MIC90 (K. pneumoniae β11): >128 µg/mL
- MIC90 (K. pneumoniae β13): <0.0625 µg/mL
- MIC90 (K. pneumoniae β14): 8 µg/mL (≈ 10 µM)
- MIC90 (K. pneumoniae β9): <0.0625 µg/mL
- MIC90 (M. catarrhalis 2524): 0.25 µg/mL (≈ 0.313 µM)
- MIC90 (P. aeruginosa 1912E): 1 µg/mL (≈ 1.25 µM)
- MIC90 (P. aeruginosa 37): 1 µg/mL (≈ 1.25 µM)
- MIC90 (P. aeruginosa 40): 0.5 µg/mL (≈ 0.625 µM)
- MIC90 (P. aeruginosa 43): 1 µg/mL (≈ 1.25 µM)
- MIC90 (P. aeruginosa 6065Y): 4 µg/mL (≈ 5 µM)
- number of clinical isolates that showed the respective MIC value ([2]; MIC 2 ug/mL): 1
- number of clinical isolates that showed the respective MIC value ([2]; MIC >16 ug/mL): 5
- number of clinical isolates that showed the respective MIC value ([3]; MIC 0.5 ug/mL): 1
- number of clinical isolates that showed the respective MIC value ([3]; MIC 2 ug/mL): 1
- number of clinical isolates that showed the respective MIC value ([3]; MIC 8 ug/mL): 1
- number of clinical isolates that showed the respective MIC value ([3]; MIC >16 ug/mL): 35
- number of clinical isolates that showed the respective MIC value ([4]; MIC 0.125 ug/mL): 1
- number of clinical isolates that showed the respective MIC value ([4]; MIC 0.5 ug/mL): 3
- number of clinical isolates that showed the respective MIC value ([4]; MIC 1 ug/mL): 2
- number of clinical isolates that showed the respective MIC value ([4]; MIC 2 ug/mL): 2
- number of clinical isolates that showed the respective MIC value ([4]; MIC 4 ug/mL): 3
- number of clinical isolates that showed the respective MIC value ([4]; MIC 8 ug/mL): 2
- number of clinical isolates that showed the respective MIC value ([4]; MIC 16 ug/mL): 1
- number of clinical isolates that showed the respective MIC value ([4]; MIC >16 ug/mL): 2
- antibacterial activity (in words) (19 clinical isolates): significantly improved
